Like-named read-outs stand apart in the source and are kept apart here. Marks after values point to notes of the source that are not given here.
What was measured:
rats = details: rat, in vivo; cited from earlier work
NIH3T3 cells = details: NIH3T3 ref 2; cited from earlier work
[1] = parameters: method as in earlier work; details: guinea pigs, 1% p-BMHCA in ethanol, 120 µg substance/cm^2, 16 h ref 4; cited from earlier work
[2] = test system: MCF-7 human breast cancer cells; details: cited from earlier work
CHO-K1 cells = format: cell-based, Chinese hamster; details: for MoA (mean fluorescence values over area of the nuclei): lilial 100 µM, PC 30 μM
Experimental: Briefly, HeLa and CHO-K1 cells were seeded at a concentration of 1 × 10^5 cells/ml into the 96-well plates. CHO-K1 cells were used for comparison with HPRT test. HeLa cells were recommended by the manufacturer of the kit. After 24 h, cells were rinsed with PBS and cultivation medium (“Cell lines” Section) without ATB, with a reduced content of FBS (5%) was added. 30 µM valinomycin (in DMSO) was used as a positive control Samples were applied in the presence of non-toxic sample concentrations, i.e. 100 µM either with or without S9 mix. […] Cells were photographed using a fluorescence microscope (Olympus IX83); filters: DAPI (500 ms) and Cy3 (500 ms). Bioimage analysis in ImageJ software was performed as described previously.

[3] = test system: Chinese hamster lung and human colonic epithelial cells; parameters: method as in PMID 32461162, PMID 24239523; details: in vitro ref 3, 5; cited from earlier work
NRF2-ARE signal pathway = NRF2-ARE signal pathway activation, luciferase reporter in transfected HEK293; format: cell-based, human; details: HEK293, 100 µM (Table 1), 18 h
Source text: […]. HEK293 cells were transiently transfected with reporter plasmid pGL4.32 (luc2P/NF-κB-RE/Hygro, Promega Corporation, Madison, Wisconsin, USA) or pGL4.37 (luc2P/NRF2-ARE/Hygro) using FuGENE (Promega Corporation). Plasmid pEGFP-C1 carrying the gene for green fluorescent protein (GFP) was co-transfected with the reporter plasmids as a normalization plasmid enabling normalization of the signal to transfection level. To test the activation of NF-κB pathway, TNFα (in the range from 13 to 200 pg/ml) as a positive control or samples (50 µM) were incubated with the cells for 5 h. […] The fluorescence (488/513 nm) was determined using SpectraMax i3x Multi-Mode Microplate Reader (Molecular Devices, San Jose, California, USA). Subsequent quantification of luciferase activity was performed using the Bright-Glo™ Luciferase Assay System (Promega Corporation) according to the manufacturer’s instructions.

[4] = Metabolic activation with rat liver S9, GC/HRMS; format: in vitro ADME; details: 37 °C, 1 h; to lysmerylic acid and p-tert-butylbenzoic acid as major metabolites
Source text: Metabolic activation was verified using GC/HRMS as described above.

CHO-K1 cells (hprt gene) = assay: CHO/HPRT mutation assay; format: cell-based, Chinese hamster; details: for Mutagenicity result: 50 µM without, 500 µM with metabolic activation
Experimental: The test with metabolic activation was performed as described in the OECD protocol, the ASTM standard[23] and other protocols[30],[31] and publications. For the test, cryopreserved CHO-K1 cells after the mutant cleansing were used. Mutant cleansing was performed according to[30], i.e. cells were cultivated three days in HAT medium, one day in HT medium and then frozen.
One passage after the thawing, 1 × 10^6 cells were seeded in 60 mm cultivation plates as described in[32]. […] The final concentration of the solvent, DMSO, was 1%. […] EMS at final concentration 2 mM as recommended in[31] served as a positive control. 3-MC at final concentration […][22] served as a positive control for metabolic activation. 1% DMSO was used as a VC. Sole cultivation medium served as a negative control (NC). After 4 h, the medium with tested substances was removed, plates were washed with PBS and fresh medium with 10% FBS was added.
During the expression period (1 week), the cells on all 60 mm plates were passaged once. On day 8, cells were trypsinized, resuspended, counted and 2 × 10^5 cells of each plate were seeded on 60 mm plates in triplicates in the presence of a selective agents, 6-TG (30 µM) as described in[32]. […] 300 cells without the selective agent were seeded in a parallel to evaluate plating efficiency (PE). On day 15, the plates were washed with PBS, cells were fixed with ice cold methanol for 10 min and stained with 0.05% crystal violet in water for 30 min[33]. After washing with water, formed colonies were counted using Schuett Count (Schuett-biotec, Göttingen, Germany). Calculations were done as described in[29]. PE was calculated according to a general Eq. 1. Particular PE at selective conditions was calculated according to Eq. 2. Particular PE at non-selective conditions was calculated according to Eq. 3. Mutation frequency (MF) was calculated according to Eq. 4.1 PE=numberofcoloniesformed/numberofcellsplated 2 PEselective=numberofmutantcoloniesNMC/200,000 3 PEnon-selective=numberofcoloniesformed/300 4 MF=PEselectiveconditions/PEnon-selectiveconditions

[5] = test system: complexes I and II of the electron transport chain; details: cited from earlier work
[6] = test system: NRF2 protein in THP-1 cells; details: 650 µM, 5 h ref 15; cited from earlier work
HeLa9903 cells = assay: Cytotoxicity, cell viability (resazurin assay), HeLa9903; format: cell-based, human; details: 1 nm–100 µM, 1 day
[7] = as above; format: cell-based, human; details: human, HeLa9903 cells, all concentrations up to 100 µM, vs vehicle control, read-out: Relative viability
HaCaT cells = details: 10 µM ref 2; cited from earlier work
androgen receptor = assay: Androgenic activity, transactivation luciferase assay in MDA-kb2; details: 1 nm–100 µM, MDA-kb2
Source text: Results were expressed as fold induction (FI), i.e. fold increase compared to vehicle control. According to EPA[28], FI of positive control should be above 4 to meet the performance standard.

CC(C=O)Cc1ccc(C(C)(C)C)cc1 (stereo not drawn) [Lilial, 3-(4-(tert-butyl)phenyl)-2-methylpropanal]
Oral dose that reduced body weight, gave clinical and systemic toxicity (rats): ≥ 50 mg/kg/day | Effect on cell viability (NIH3T3 cells): no negative effect | In vitro dermal absorption [1]: 25.7% | Estrogenic activity (expression of transfected reporter and endogenous pS2 gene) ([2]; MCF7 in vitro ref 8): very weak estrogenic activity | Cell doublings ([2]; lilial 100 µM, estrogen 10 nM, unaffected control 1.8 doublings ref 8): 2.4 doublings | Genotoxicity result (CHO-K1 cells; CHO-K1, 100 µM): Inconclusive | MoA (mean fluorescence values over area of the nuclei) (CHO-K1 cells; CHO-K1, 4h_S9): 1.10* | MoA (mean fluorescence values over area of the nuclei) (CHO-K1 cells; CHO-K1, 4 h, without S9): 0.52 | MoA (mean fluorescence values over area of the nuclei) (CHO-K1 cells; CHO-K1, 24 h): 0.99 | Mutagenicity in mammalian cell gene mutation assay [3]: not mutagenic | NRF2-ARE signal pathway activation result (NRF2-ARE signal pathway): Non activator | NRF2-ARE signal pathway activation result (NRF2-ARE signal pathway; listed as lilial): neither the NF-kB (Fig. 7) nor NRF2 (Fig. 8) signalling pathway was activated | Metabolism in presence of Arochlor-induced rat liver S9 fractions [4]: almost completely metabolised | Mutagenicity result (CHO-K1 cells (hprt gene)): Non mutagenic | Mutagenicity result (CHO-K1 cells (hprt gene); listed as lilial): not mutagenic | MF (/10^6) mutation frequency (CHO-K1 cells (hprt gene); Table 3, without activation, lilial 50 µM, EMS 240 µg/ml (2 mM), 4 h): 9 ± 4 /10^6 | NMC (number of mutant colonies) (CHO-K1 cells (hprt gene); Table 4, With S9, lilial 500 µM, 3MC 2 µg/ml): 1 ± 1 | Effect on complexes I and II of the electron transport chain [5]: inhibit complexes I and II | Level of NRF2 protein [6]: significant increase | Cytotoxicity result (HeLa9903 cells): Non toxic up to 100 µM | viability at 1 day [7]: > 80% | Decrease in cell viability (HaCaT cells): 65% | Androgenic activity (agonist) result (androgen receptor): Non active up to 100 µM | Androgenic activity (agonist) result (androgen receptor; listed as lilial): no activity was detected

Source: paper PMC10613275 (Scientific Reports, 2023)
